{"source": "patent US12612411B1", "about": "“Imidazopyrazine derivatives, process for preparation thereof, and their uses as luciferins” (INSTITUT PASTEUR, priority 2017, dated 2026)", "key": {"nanoKAZ [1]": {"target": "T1, nanoKAZ (Oplophorus gracilirostris, UniProt Q9GV45, A31E/A60N/A81I/F95D/I117V/K70R/L54V/L99Q/M102K/N193R/P142E/Q151K/Q38R/Q45L/V71I/Y165I)", "T1 construct": "luciferase catalytic domain (nanoKAZ, 19 kDa) from the Oplophorus-derived luciferase", "T1 sequence (Q9GV45 other isoform, or with tags, fused parts or gaps with the stated changes)": "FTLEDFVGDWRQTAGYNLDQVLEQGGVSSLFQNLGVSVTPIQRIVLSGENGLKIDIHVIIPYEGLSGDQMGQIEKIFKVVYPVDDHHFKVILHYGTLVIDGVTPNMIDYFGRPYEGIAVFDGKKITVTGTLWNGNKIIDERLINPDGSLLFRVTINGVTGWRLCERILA", "assay": "Bioluminescence emission spectra", "format": "biochemical", "description": "(§1) Furimazine (Q-1) and derivatives have emission spectra centred on 460 nm but present large peaks bleeding beyond 580 nm. The bioluminescence obtained with the analogue Q-3 provides photons with 10% of them having a wavelength beyond 560 nm up to 600 nm. This wide spectra emission toward red is thus allowing the use of the nanok AZ/furimazine for in vivo imaging. The light emission beyond 580 is thousands times higher than red emitting firefly or beetle luciferases. IL7:nanoKAZ and analogue Q-3 were injected in mice."}, "nanoKAZ [2]": {"target": "T1, nanoKAZ", "assay": "Dynamic range of nanoKAZ bioluminescence versus serial enzyme dilutions", "format": "biochemical", "details": "constant volume 100 μL, constant substrate concentration", "procedure": "FIG. 3 illustrates dynamic range (relative units (RLU) versus serial dilutions) of nanok AZ, which was plotted using the imidazo[1,2-a]pyrazin-3(7H)-one Q-3.\nAs depicted in FIG. 3, the dynamic range of nanoKAZ was assessed using luciferin Q-3. The enzyme was diluted three by three times and the bioluminescence has been measured on a constant volume (100 (L) and at constant concentration of the substrate. The bioluminescence is linear with the enzyme concentration over 5 orders of magnitude, overwhelming the detection system. This range can be increase by two orders of magnitude by decreasing 2 times the volume for high enzyme concentration and by increasing two times the volume for low enzyme concentration."}, "[3]": {"system": "protein chimeras fused to the nanoKAZ in transiently transfected HEK and Jurkat cell lines, and primary human T-cells", "assay": "In cellulo bioluminescence imaging with a light microscope", "format": "cell-based", "details": "images acquired for one second from live cells, FIG. 5", "description": "FIG. 5 compares expression and location of protein chimeras fused to the nanoKAZ in transiently transfected HEK and Jurkat cell lines, and primary human T-cells: the cytokine receptor IL7Rα:nanoKAZ at the membrane (top), the enconsin tubulin binding protein EMTB:nanoKAZ associated with microtubules (middle), the transcription factor STAT5a:nanoKAZ dense throughout the cytoplasm and faint in the nucleus (bottom).\nThe acquisition of bioluminescence using a light microscope provides a quantitative measurement of light emission cell by cell, the main advantage. This is meaningful especially when the transfection efficiency is low in the case of nanoKAZ expression provided by plasmids. […] The higher is the bioluminescence efficiency, the lower is the exposure time and the lower is the sensitivity required for the detector or camera. NanoKAZ with developed substrates such as Q-3 or Q-12 opens the bioluminescence imaging to standard light microscope. The lower the exposure time, the higher the resolution, which is impeded by the motion of living cells. Any gain in light emission enhances the quality of images. Luciferase reporters or fragments can be fused to proteins targeting the cell surface, cytoplasm, organelles, nucleus or exosomes and can be carried by virus, host-infecting cells or agents, biologic complexes, beads or any particles. […]"}, "nanoKAZ [4]": {"target": "T1, nanoKAZ", "assay": "Michaelis-Menten parameters of nanoKAZ from Lineweaver-Burk representation", "format": "biochemical", "details": "extrapolated from Lineweaver-Burk, constant enzyme concentration", "description": "The two dotted lines (linear regression) are converging to the same intercept with the x-axis (−1/Km) and different intercepts with the y-axis (1/Vmax). The equations of the two linear regressions are indicated and the corresponding correlation factors (R^2) with the experimental data are reported.\nConsidering the hypothesis of a Michaelis-Menten mechanism for the nanoKAZ, the Km and Vmax were extrapolated from the Lineweaver-Burk representation of the enzyme activity catalyzing either Q-1 or Q-3. […] The data have been fitted with linear regression with satisfying high correlation factors (R). The Km are the same for both substrates (Km=2 μM) whereas the Vmax is 3-times lower for Q-1 (0.6·10^6 RLU/sec) than for Q-3 (2.0·10^6 RLU/sec)."}, "nanoKAZ luciferase": {"target": "T2, nanoKAZ luciferase (Oplophorus gracilirostris, UniProt Q9GV45, A31E/A60N/A81I/F95D/I117V/K70R/L54V/L99Q/M102K/N193R/P142E/Q151K/Q38R/Q45L/V71I/Y165I)", "T2 construct": "luciferase catalytic domain (nanoKAZ, 19 kDa) from the Oplophorus-derived luciferase; host or cells: cell-free: 1-Step Human Coupled IVT Kit, pT7CFE1-based vector", "T2 sequence (Q9GV45 other isoform, or with tags, fused parts or gaps with the stated changes)": "as above", "assay": "In vitro bioluminescence screening of imidazo[1,2-a]pyrazin-3(7H)-ones with nanoKAZ expressed in vitro (96-well luminometer, 2 h kinetic)", "format": "biochemical", "details": "Table 1; furimazine = 1", "outline": "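nanoKAZ made by human coupled IVT, diluted 400-fold then 1/20 in DPBS + 0.1% Tween 20; luciferins generated in situ by acid hydrolysis of O-acetyl precursors (DMSO/acidic ethanol, 50 °C, 2 h). Luminescence followed kinetically for 2 h; max intensity, signal half-life and 10-min and 2-h AUC normalized to furimazine.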"}, "IL7:nanoKAZ": {"system": "IL7:nanoKAZ", "assay": "In vivo bioluminescence imaging (Ivis) after injection of IL7:nanoKAZ and substrate", "details": "IL7:nanoKAZ and substrate injected in mice", "description": "as §1"}}}
{"smiles": "Cc1ccc(Cc2nc3c(Cc4ccccc4)[nH]c(-c4ccccc4)cn-3c2=O)o1", "note": "[Q-3, 8-benzyl-2-((5-methylfuran-2-yl)methyl)-6-phenylimidazo[1,2-a]pyrazin-3(7H)-one]", "values": [{"measurement": "photons having a wavelength beyond 560 nm up to 600 nm", "setting": "nanoKAZ [1]", "result": 10, "unit": "%"}, {"measurement": "range over which bioluminescence is linear with the enzyme concentration", "setting": "nanoKAZ [2]", "result": "5 orders of magnitude"}, {"measurement": "light emission in live-cell images compared with Q-1", "setting": "[3]", "result": "gain of light emission"}, {"measurement": "Vmax", "setting": "nanoKAZ [4]", "result": "2.0·10^6 RLU/sec"}, {"measurement": "V1: maximum intensity, normalized using furimazine (Q-1) as a reference", "setting": "nanoKAZ luciferase", "result": 2.7}, {"measurement": "V3: area under the curve for ten minutes, normalized using furimazine (Q-1) as a reference", "setting": "nanoKAZ luciferase", "result": 2.39}, {"measurement": "V4: area under the curve for two hours, normalized using furimazine (Q-1) as a reference", "setting": "nanoKAZ luciferase", "result": 1.3}, {"measurement": "in vivo bioluminescence image quality", "setting": "IL7:nanoKAZ", "result": "Quantitative images of high quality were acquired"}]}
